Source: patent publication US6900219B2, “ABCA-1 elevating compounds” (CV Therapeutics, Inc., priority 2002, dated 2005)

system: ABCA-1 gene; test: compounds tested and found to elevate cellular expression of the ABCA-1 gene (Examples 1-6; test not named); format: cell-based
Experimental: Activity testing is conducted as described in those patents and patent applications referenced above, and in the Examples below, and by methods apparent to one skilled in the art.

Row | SMILES | cellular expression of the ABCA-1 gene
1 | CC(C)CN(C(=O)Nc1ccc(Cl)cc1)C(C)c1nc2ccccc2c(=O)n1-c1ccc2ccccc2c1 (stereo not shown) [[(4-chlorophenyl)amino]-N-(2-methylpropyl)-N-[(3-(2-naphthyl)-4-oxo(3-hydroquinazolin-2-yl))ethyl]carboxamide] | elevate cellular expression of the ABCA-1 gene
2 | O=C(Nc1ccc(Cl)cc1)NC1CCCCC1 [[(4-chlorophenyl)amino]-N-cyclohexylcarboxamide] | elevate cellular expression of the ABCA-1 gene
3 | Cc1ccc(NC(=O)N(CC(C)C)C(C)c2nc3ccccc3c(=O)n2-c2ccc3ccccc3c2)cc1 (stereo not shown) [[(4-methylphenyl)amino]-N-(2-methylpropyl)-N-[(3-(2-naphthyl)-4-oxo(3-hydroquinazolin-2-yl))ethyl]carboxamide] | elevate cellular expression of the ABCA-1 gene
4 | CCCCCc1ccc(NC(=O)NC2=NCCS2)cc1 [[(4-pentylphenyl)amino]-N-(1,3-thiazolin-2-yl)carboxamide] | elevate cellular expression of the ABCA-1 gene
5 | O=C(NCC1CCCCC1)Nc1ccc2c(c1)CCC2 [[(cyclohexylmethyl)amino]-N-indan-5-ylcarboxamide] | elevate cellular expression of the ABCA-1 gene
6 | CCOc1ccc2nc(NC(=O)NC(C)(C)C)sc2c1 [[t-butylamino]-N-(6-ethoxybenzothiazol-2-yl)carboxamide] | elevate cellular expression of the ABCA-1 gene
7 | O=C(Nc1ccc(F)cc1F)c1cc2ccccc2s1 [benzo[b]thiophen-2-yl-N-(2,4-difluorophenyl)carboxamide] | elevate cellular expression of the ABCA-1 gene
8 | O=C(Nc1nc2c(Cl)cccc2s1)c1cc2ccccc2s1 [benzo[b]thiophen-2-yl-N-(4-chlorobenzothiazol-2-yl)carboxamide] | elevate cellular expression of the ABCA-1 gene
9 | O=C(Nc1nc2ccccc2s1)c1cc2ccccc2s1 [benzo[b]thiophen-2-yl-N-benzothiazol-2-ylcarboxamide] | elevate cellular expression of the ABCA-1 gene
10 | Cc1cc(C(=O)c2cc3ccccc3o2)ccc1Cl [benzo[d]furan-2-yl 4-chloro-3-methylphenyl ketone] | elevate cellular expression of the ABCA-1 gene
11 | COc1cccc(Nc2nc3ccccc3s2)c1 [benzothiazol-2-yl-(3-methoxyphenyl)amine] | elevate cellular expression of the ABCA-1 gene
12 | O=C(Nc1ncc(-c2ccccc2)s1)C1CCCCC1 [cyclohexyl-N-(5-phenyl(1,3-thiazol-2-yl))carboxamide] | elevate cellular expression of the ABCA-1 gene
13 | O=C(Nc1nc(-c2ccc3ccccc3c2)cs1)C1CCCC1 [cyclopentyl-N-(4-(2-naphthyl)(1,3-thiazol-2-yl))carboxamide] | elevate cellular expression of the ABCA-1 gene
14 | O=C(Nc1ncc(-c2ccccc2)s1)C1CCCC1 [cyclopentyl-N-(5-phenyl(1,3-thiazol-2-yl))carboxamide] | elevate cellular expression of the ABCA-1 gene
15 | O=C(Nc1nc(-c2ccccc2)ns1)C1CC1 [cyclopropyl-N-(3-phenyl(1,2,4-thiadiazol-5-yl))carboxamide] | elevate cellular expression of the ABCA-1 gene
16 | O=C(Nc1ncc(-c2ccccc2)s1)C1CC1 [cyclopropyl-N-(5-phenyl(1,3-thiazol-2-yl))carboxamide] | elevate cellular expression of the ABCA-1 gene
17 | O=C(Nc1ncc(-c2ccc(F)cc2)s1)C1CC1 [cyclopropyl-N-[5-(4-fluorophenyl)(1,3-thiazol-2-yl)]carboxamide] | elevate cellular expression of the ABCA-1 gene
18 | CCOC(=O)C1CCCCN1C(=O)c1ccc2c(c1)OCO2 (stereo not shown) [ethyl 1-(2H-benzo[d]1,3-dioxolen-5-ylcarbonyl)piperidine-2-carboxylate] | elevate cellular expression of the ABCA-1 gene
19 | CCOC(=O)C1=C(NCCc2ccccc2)CCN(C(=O)c2ccc(Cl)cc2Cl)C1 [ethyl 1-[(2,4-dichlorophenyl)carbonyl]-4-[(2-phenylethyl)amino]-1,2,5,6-tetrahydropyridine-3-carboxylate] | elevate cellular expression of the ABCA-1 gene
20 | CCOC(=O)C1=C(NCCc2ccccc2)CCN(C(=O)c2ccc([N+](=O)[O-])cc2Cl)C1 [ethyl 1-[(2-chloro-4-nitrophenyl)carbonyl]-4-[(2-phenylethyl)amino]-1,2,5,6-tetrahydropyridine-3-carboxylate] | elevate cellular expression of the ABCA-1 gene

Row | SMILES | cellular expression of the ABCA-1 gene
21 | CCOC(=O)C1=C(NCCc2ccccc2)CCN(C(=O)c2ccccc2C)C1 [ethyl 1-[(2-methylphenyl)carbonyl]-4-[(2-phenylethyl)amino]-1,2,5,6-tetrahydropyridine-3-carboxylate] | elevate cellular expression of the ABCA-1 gene
22 | CCOC(=O)C1=C(NCCc2ccccc2)CCN(C(=O)c2ccc(Br)cc2)C1 [ethyl 1-[(4-bromophenyl)carbonyl]-4-[(2-phenylethyl)amino]-1,2,5,6-tetrahydropyridine-3-carboxylate] | elevate cellular expression of the ABCA-1 gene
23 | CCOC(=O)C1=C(NCCc2ccccc2)CCN(C(=O)c2ccc(CC)cc2)C1 [ethyl 1-[(4-ethylphenyl)carbonyl]-4-[(2-phenylethyl)amino]-1,2,5,6-tetrahydropyridine-3-carboxylate] | elevate cellular expression of the ABCA-1 gene
24 | CCOC(=O)C1=C(NCCc2ccccc2)CCN(C(=O)c2ccc(F)cc2)C1 [ethyl 1-[(4-fluorophenyl)carbonyl]-4-[(2-phenylethyl)amino]-1,2,5,6-tetrahydropyridine-3-carboxylate] | elevate cellular expression of the ABCA-1 gene
25 | CCOC(=O)C1=C(NCCc2ccccc2)CCN(C(=O)c2ccc(OC)cc2)C1 [ethyl 1-[(4-methoxyphenyl)carbonyl]-4-[(2-phenylethyl)amino]-1,2,5,6-tetrahydropyridine-3-carboxylate] | elevate cellular expression of the ABCA-1 gene
26 | CCOC(=O)C1=C(NCCc2ccccc2)CCN(C(=O)c2ccc(C)cc2)C1 [ethyl 1-[(4-methylphenyl)carbonyl]-4-[(2-phenylethyl)amino]-1,2,5,6-tetrahydropyridine-3-carboxylate] | elevate cellular expression of the ABCA-1 gene
27 | CCOC(=O)C1=C(NCCc2ccccc2)CCN(C(=O)c2ccc([N+](=O)[O-])cc2)C1 [ethyl 1-[(4-nitrophenyl)carbonyl]-4-[(2-phenylethyl)amino]-1,2,5,6-tetrahydropyridine-3-carboxylate] | elevate cellular expression of the ABCA-1 gene
28 | CCOC(=O)C1=C(NCCc2ccccc2)CCN(C(=O)c2ccc(C(C)(C)C)cc2)C1 [ethyl 1-[(4-t-butylphenyl)carbonyl]-4-[(2-phenylethyl)amino]-1,2,5,6-tetrahydropyridine-3-carboxylate] | elevate cellular expression of the ABCA-1 gene
29 | CCOC(=O)Cc1csc(NC(=O)Nc2ccccc2F)n1 [ethyl 2-(2-{[(2-fluorophenyl)amino]carbonylamino}-1,3-thiazol-4-yl)acetate] | elevate cellular expression of the ABCA-1 gene
30 | CCOC(=O)CNC(=O)N(CCN(C)C)C(C)c1nc2ccccc2c(=O)n1-c1ccc2ccccc2c1 (stereo not shown) [ethyl 2-({N-[2-(dimethylamino)ethyl]-N-[(3-(2-naphthyl)-4-oxo(3-hydroquinazolin-2-yl))ethyl]carbamoyl}amino)acetate] | elevate cellular expression of the ABCA-1 gene
31 | CCOC(=O)CNC(=O)N(CCOC)C(C)c1nc2ccccc2c(=O)n1-c1ccc(Br)cc1 (stereo not shown) [ethyl 2-[(N-{[3-(4-bromophenyl)-4-oxo(3-hydroquinazolin-2-yl)]ethyl}-N-(2-methoxyethyl)carbamoyl)amino]acetate] | elevate cellular expression of the ABCA-1 gene
32 | CCOC(=O)CCN(CCc1ccccc1)C(=O)c1ccc2c(c1)OCO2 [ethyl 3-[2H-benzo[d]1,3-dioxolen-5-yl-N-(2-phenylethyl)carbonylamino]propanoate] | elevate cellular expression of the ABCA-1 gene
33 | CCOC(=O)CCN(C(=O)CCc1ccccc1)c1ccc(Br)cc1 [ethyl 3-[(4-bromophenyl)-N-(2-phenylethyl)carbonylamino]propanoate] | elevate cellular expression of the ABCA-1 gene
34 | CCOC(=O)CCN(C(=O)CCc1ccccc1)c1ccc(CC)cc1 [ethyl 3-[(4-ethylphenyl)-N-(2-phenylethyl)carbonylamino]propanoate] | elevate cellular expression of the ABCA-1 gene
35 | CCOC(=O)C1=C(NCCc2ccccc2)CCN(C(=O)c2ccc(-c3ccccc3)cc2)C1 [ethyl 4-[(2-phenylethyl)amino]-1-[(4-phenylphenyl)carbonyl]-1,2,5,6-tetrahydropyridine-3-carboxylate] | elevate cellular expression of the ABCA-1 gene
36 | CCOC(=O)c1ccc(NC(=O)Nc2ccccc2)cc1 [ethyl 4-[(phenylamino)carbonylamino]benzoate] | elevate cellular expression of the ABCA-1 gene
37 | CCOC(=O)CC(=O)CSc1nnc(NC(=O)c2ccc(Cl)cc2)s1 [ethyl 4-{5-[(4-chlorophenyl)carbonylamino](1,3,4-thiadiazol-2-ylthio)}-3-oxobutanoate] | elevate cellular expression of the ABCA-1 gene
38 | O=C(Nc1ncc(-c2ccccc2)s1)c1ccno1 [isoxazol-5-yl-N-(5-phenyl(1,3-thiazol-2-yl))carboxamide] | elevate cellular expression of the ABCA-1 gene
39 | COC(=O)c1ccc(C(=O)NC2=NCCS2)cc1 [methyl 4-(N-(1,3-thiazolin-2-yl)carbamoyl)benzoate] | elevate cellular expression of the ABCA-1 gene
40 | COC(=O)c1ccc(C(=O)NC2=NC(=O)CS2)cc1 [methyl 4-[N-(4-oxo-1,3-thiazolin-2-yl)carbamoyl]benzoate] | elevate cellular expression of the ABCA-1 gene
